In patent US20170022201A1, “MACROCYLIC PYRIDINE DERIVATIVES” (Janssen Pharmaceutica NV, priority 2014, published 2017):

What was measured:
eEF2K = molecular target: T1, eEF2K (Homo sapiens, UniProt O00418); assay: EF2K cell-based assay (P-EF2 AlphaLISA, 2-deoxyglucose stimulated MCF10A cells); settings: 2.5 mM 2-deoxyglucose 4 h, phosphorylation of EF2 at Thr 56, pIC50 = -log IC50 (M), read-out: eEF2K_C_PThr56 pIC50 (converted)
T1 construct: in the immortalized epithelial breast cell lines, MCF10A; host or cells: MCF10A immortalized breast epithelial cells
T1 sequence (O00418 1-725): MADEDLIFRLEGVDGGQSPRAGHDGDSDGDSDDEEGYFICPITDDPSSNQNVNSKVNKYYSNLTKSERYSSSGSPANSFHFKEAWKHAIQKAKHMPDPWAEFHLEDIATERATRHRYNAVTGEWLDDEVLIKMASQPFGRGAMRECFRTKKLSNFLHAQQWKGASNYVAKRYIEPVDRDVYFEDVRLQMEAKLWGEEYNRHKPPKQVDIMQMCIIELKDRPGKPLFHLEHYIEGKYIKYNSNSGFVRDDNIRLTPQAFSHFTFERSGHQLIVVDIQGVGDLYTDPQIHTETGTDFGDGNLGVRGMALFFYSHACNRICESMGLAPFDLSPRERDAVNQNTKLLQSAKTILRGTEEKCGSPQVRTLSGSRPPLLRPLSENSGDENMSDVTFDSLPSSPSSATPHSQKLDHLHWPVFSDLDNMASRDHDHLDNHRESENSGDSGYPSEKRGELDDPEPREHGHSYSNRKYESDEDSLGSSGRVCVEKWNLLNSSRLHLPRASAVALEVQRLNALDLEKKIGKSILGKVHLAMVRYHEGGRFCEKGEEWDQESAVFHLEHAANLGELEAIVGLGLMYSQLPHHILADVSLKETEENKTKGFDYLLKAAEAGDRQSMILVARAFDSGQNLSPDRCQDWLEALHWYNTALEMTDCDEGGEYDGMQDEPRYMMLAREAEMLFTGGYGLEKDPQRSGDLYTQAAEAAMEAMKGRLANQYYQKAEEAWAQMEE
How it was run: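 MCF10A cells pretreated with compound for 1 h, then stimulated with 2.5 mM 2-deoxyglucose for 4 h to deplete ATP and activate AMPK. Phospho-EF2 in lysates measured by AlphaLISA.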

PIK3C3 lipid kinase = PIK3C3 lipid kinase (Homo sapiens, UniProt Q8NEB9); assay: Biochemical Vps34 lipid kinase assay (ADP-Glo); settings: 20 μM ATP; for remaining activity at 1 µM: 1 h, single dose 1 μM, residual activity compared to control (DMSO), read-out: VPS34_1microM_%ofcntrl
How it was run: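 ADP-Glo luminescence measured PIK3C3 (7.6 nM) activity with 50 μM substrate, 20 μM ATP (apparent Km), 3 mM MnCl2, HEPES pH 7.5, 60 min at 30° C. Compounds tested at 1 μM single dose (residual activity vs DMSO) or half-log series 10 μM–0.3 nM giving pIC50.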

EF2K = molecular target: T2, EF2K (Homo sapiens, UniProt O00418); assay: Biochemical EF2K lysate-based kinase assay (AlphaLISA p-eEF2 Thr56); settings: LN-229 cell lysates, 10 mM ATP, pH 6.6; pIC50 = -log IC50 (M); read-out: eEF2K_C_alphalisa pIC50 (converted)
T2 construct: host or cells: LN-229 glioblastoma cell lysate
T2 sequence (O00418 1-725): T1 sequence (O00418 1-725)
How it was run: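 LN-229 glioblastoma lysate supplied both EF2K and eEF2 substrate; compound incubated with lysate 15 minutes at room temperature at pH 6.6 with 10 mM Mg2+ and 10 mM ATP, then stopped with excess EDTA. Thr56-phosphorylated eEF2 detected by sandwich AlphaLISA, final read after overnight standing.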

PIK3C3 lipid kinase, sequence (Q8NEB9 whole entry): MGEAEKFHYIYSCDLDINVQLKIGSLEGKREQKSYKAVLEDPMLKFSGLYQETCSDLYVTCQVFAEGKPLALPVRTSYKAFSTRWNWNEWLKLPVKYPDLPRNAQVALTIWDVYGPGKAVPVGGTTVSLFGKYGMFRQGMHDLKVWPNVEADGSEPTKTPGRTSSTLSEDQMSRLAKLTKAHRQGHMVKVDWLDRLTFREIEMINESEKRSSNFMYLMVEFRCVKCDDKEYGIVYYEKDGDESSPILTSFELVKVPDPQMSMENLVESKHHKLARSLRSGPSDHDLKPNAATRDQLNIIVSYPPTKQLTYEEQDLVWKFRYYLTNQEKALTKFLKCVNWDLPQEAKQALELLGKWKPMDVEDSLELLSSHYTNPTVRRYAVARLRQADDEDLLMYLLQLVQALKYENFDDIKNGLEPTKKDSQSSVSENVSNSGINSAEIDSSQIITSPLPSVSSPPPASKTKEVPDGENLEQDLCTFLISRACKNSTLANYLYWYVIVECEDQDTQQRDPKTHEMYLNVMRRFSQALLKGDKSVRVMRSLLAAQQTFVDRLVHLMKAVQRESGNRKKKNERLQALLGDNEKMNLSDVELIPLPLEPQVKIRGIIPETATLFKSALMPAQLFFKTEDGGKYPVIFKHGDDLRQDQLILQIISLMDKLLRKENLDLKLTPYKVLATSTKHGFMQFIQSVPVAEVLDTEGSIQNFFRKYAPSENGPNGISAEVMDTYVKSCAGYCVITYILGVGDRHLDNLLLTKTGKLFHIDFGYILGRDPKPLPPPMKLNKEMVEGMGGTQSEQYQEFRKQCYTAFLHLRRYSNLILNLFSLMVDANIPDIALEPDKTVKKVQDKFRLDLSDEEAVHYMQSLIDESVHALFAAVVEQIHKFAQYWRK

COCCN1CCN(C)C(=O)CN2CCN(CC2)Cc2cccc(c2)Nc2cc(ccn2)-c2cnc1nc2 [Compound 15]
IC50 (eEF2K): > 3.02e-05 M
remaining activity at 1 µM (PIK3C3 lipid kinase): 67%
melting point: 240 °C
IC50 (EF2K): > 3.02e-05 M

O=C1CN2CCN(CC2)Cc2cccc(c2)Nc2cc(ccn2)-c2ccc(nc2)NCCN1 [Compound 70]
IC50 (eEF2K): > 3.02e-05 M
remaining activity at 1 µM (PIK3C3 lipid kinase): 72.6%
melting point: 252 °C
IC50 (EF2K): 5.62e-06 M

CC1CN2CCN1Cc1cccc(c1)Nc1cc(ccn1)-c1ccc(nc1)NCCCNC(=O)C2 (stereo not drawn) [Compound 71]
IC50 (eEF2K): 2.45e-05 M
remaining activity at 1 µM (PIK3C3 lipid kinase): 32.1%
melting point: 162 °C
IC50 (EF2K): 3.31e-07 M

O=C1CN2CCC(CC2)Nc2cccc(c2)Nc2cc(ccn2)-c2cnc(nc2)NCCCN1 [Compound 106]
IC50 (eEF2K): 2.88e-05 M
remaining activity at 1 µM (PIK3C3 lipid kinase): 22.4%
IC50 (PIK3C3 lipid kinase; serial dilution 10 μM to 0.3 nM, pIC50 = -log IC50 (M)): 5.89e-07 M
melting point: 255.3 to 256.8 °C
IC50 (EF2K): 7.59e-07 M

O=C1CNCCNc2ccc(cn2)-c2ccnc(c2)Nc2cccc(c2)CN2CCN1CC2 [Compound 144]
IC50 (eEF2K): > 3.02e-05 M
remaining activity at 1 µM (PIK3C3 lipid kinase): 53.7%
melting point: 143 °C
IC50 (EF2K): ~1.51e-05 M
